# From patent US20240239818A1, “COMPOUNDS AND COMPOSITIONS COMPRISING FLUOROPHORES FOR USE IN VISUALIZATION AND PURIFICATION OR MANIPULATION” (priority 2022, published 2024)
# Read-outs that look alike come from different tables or passages of the source.
# Tests used:
# [1] = 1-Photon spectroscopy and quantum yield of HaloTag® ligands; assay type: physicochemical; details: free ligand, 10 mM HEPES pH 7.3
# Procedure: 1-Photon spectroscopy of HaloTag® ligands and HaloTag® conjugates. […] All measurements were taken at ambient temperature (22 ±2° C.). Absorption spectra were recorded on a Cary Model 100 spectrometer (Agilent) using 1-cm path length 1.0-mL quartz microcuvettes from Starna Cells. Fluorescence spectra were recorded on a Cary Eclipse fluorometer (Varian) using 1-cm path length 3.5-mL quartz cuvettes (Starna Cells). As before,^13, 23, 32, 45 HaloTag® protein was used as a 100 μM solution in 1×TBS. HaloTag® ligands 12-15 (5 μM) were dissolved in 10 mM HEPES, pH 7.3, containing 0.1 mg/mL CHAPS. An aliquot of HaloTag® protein (1.5 equiv) was added, and the resulting mixture was incubated until a consistent absorbance signal was observed (60-120 min). To measure the fold-increase of absorbance upon HaloTag® binding, a “no HaloTag®” control experiment was performed where an equivalent volume of TBS blank was added in place of the protein. Reported values for extinction coefficient (ε) are averages of at least two measurements.
# Quantum yield determination. All reported absolute fluorescence quantum yield values (Φf) were measured in the laboratory under identical conditions using a Quantaurus-QY spectrometer (model C11374, Hamamatsu). This instrument uses an integrating sphere to determine photons absorbed and emitted by a sample. Measurements were performed using dilute samples (absorbance<0.1), and self-absorption corrections were performed using the instrument software.^46 Reported values are averages of at least two measurements.
# [2] = assay type: physicochemical
# Procedure: Determination of logD7.4. The log of distribution coefficients at pH 7.4 was determined in octanol-phosphate-buffered saline (PBS) using the miniaturized shake flask setup described previously.^36, 47 Briefly, 150 mL each of octanol and PBS pH 7.4 were stirred vigorously for 12-16 h. The layers were allowed to stand for at least 24 h for phase separation. The separated layers were collected and served as PBS saturated with octanol (PBS*) and octanol saturated with PBS (octanol*). Stock solutions (1 mM or 5 mM) of ligands were prepared in DMSO and diluted in PBS* to obtain 1 μM or 10 μM (3-5 mL) of the standard (std). This standard was used to prepare appropriate dilutions using octanol*, in triplicate, in 2-mL glass vials. The leftover standard was used to determine the standard concentration (Cstd). The vials were vortexed for 1 min and shaken horizontally at 700 rpm for 2 h. The vials were then shaken upright at 150 rpm for 2 h to allow the phases to separate. The octanol* layer was pipetted out, and the PBS* layer was used for further analyses. The concentrations of ligands in the standard and PBS* (CPBS*) were determined via fluorescence measurements of 200 μL of PBS* or std in 96-well plates on the Cytation 5 Multimode Plate Reader (BioTek). For Si-rhodamine containing ligands, 2-20 μL of trifluoroacetic acid was added to each well of the 96-well plate prior to the fluorescence measurements. Reported values are averages of at least two measurements. The logD7.4 was obtained as described previously using equation 2:
# [formula] • where Cstd is the standard concentration in PBS, CPBS* is the concentration in PBS after partitioning, r is the dilution factor of the standard solution, VPBS* is the volume of PBS used in the partitioning, and Voctanol* is the volume of octanol used in the partitioning.
# [3] = target: T1, msGFP-HaloTag® fusion localized to the mitochondrial outer membrane (Rhodococcus rhodochrous, UniProt P0A3G2, A155T/A167V/A172T/A224E/C128F/C176G/D78G/E160K/E257K/H272N/K175M/K195N/L47V/L88M/N227D/S58T/T264A/Y273L/Y87F); test: HEK293T labeling and fluorescence microscopy; assay type: cell-based; details: for labeling of mitochondria-localized HaloTag®-msGFP fusion: live HEK293T cells, nanomolar concentration (100 nM, 1 h); for concentration at which ligand can be deployed for cellular labeling: live cells; for cellular fluorescence intensity (JF ligand/msGFP ratio): HEK293T cells, 100 nM, same imaging conditions
# T1 construct: expressed in transfected cells; host or cells: HEK293T, calcium phosphate transfection
# Excerpt: Plasmid construction. HaloTag®, amplified from the pHTC HaloTag® CMV-neo Vector (Promega; G7711) and monomeric-superfolder green fluorescent protein (msGFP; lab stock), was fused to the mitochondrial targeting signal from OMP25,^28 interspacing flexible GS(GSS)4 linkers between each domain by PCR Splicing by Overlap Extension (SOE). This construct was subcloned into hSynapsin promoter bearing a copy of FUGW.^29 FUGW was a gift from David Baltimore (Addgene plasmid #14883; RRID: Addgene_14883).^48 This construct was designated as pF(UG) hSyn HaloTag®-TEV-4×GS-msGFP-mito.
# HEK293T cell culture. HEK293T cells (ATCC) were passaged before 80% confluency by trypsinization (Corning; 25-053-CI) and trituration. The cell suspension was then plated on glass coverslips (Warner instruments; 64-0734, CS-18R17) coated with poly-D-lysine (Thermofisher; ICN10269491) and cultured in Dulbecco's Modified Eagle Medium (DMEM; ThermoFisher; 11965-118) supplemented with 10% v/v fetal bovine serum (FBS, Atlanta Biological) and penicillin/streptomycin (pen/strep; ThermoFisher; MT-30-001-CI) at 37° C. in a humidified 5% v/v CO2 environment following ATCC guidelines. These HEK293T cells were tested for mycoplasma contamination using the Universal Mycoplasma Detection Kit (ATCC; 30-1012K) and validated using Short Tandem Repeat profiling by ATCC (ATCC; 135-XV) within the previous year.
# HEK293T labeling and fluorescence microscopy. […] For pulse-chase experiments, HEK293T cells were incubated with biotin-HaloTag® ligand (6; #G8281, Promega) at either 100 nM or 10 μM for 1 hour at 37° C. and chased with 100 nM of JANELIA FLUOR® (JF)549-HaloTag® ligand (2HTL). […] For imaging, the coverslips containing HEK293T cells were fixed with 4% paraformaldehyde in PBS at 37° C. for 10 min, washed with PBS (3×), and mounted on glass slides with ProLong Glass Antifade Mountant with NucBlue™ Stain (ThermoFisher; P36981). These cells were imaged using a Zeiss LSM 880 with Airyscan and a plan-apochromatic 63×/1.40 oil objective in Fast Airyscan mode. The same image acquisition settings were used for each trial and condition. Images were then processed with automatic Airyscan deconvolution settings.
# T1 sequence (P0A3G2 other isoform, or with tags, fused parts or gaps with the stated changes): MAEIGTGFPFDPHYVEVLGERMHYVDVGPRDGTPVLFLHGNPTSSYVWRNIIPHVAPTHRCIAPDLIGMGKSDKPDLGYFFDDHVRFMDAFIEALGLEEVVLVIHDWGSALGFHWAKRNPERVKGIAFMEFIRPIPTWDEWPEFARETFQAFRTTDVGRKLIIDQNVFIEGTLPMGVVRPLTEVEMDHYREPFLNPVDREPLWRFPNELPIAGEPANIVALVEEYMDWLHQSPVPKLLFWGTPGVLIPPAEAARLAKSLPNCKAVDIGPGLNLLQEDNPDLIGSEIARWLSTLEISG
Compound,extinction coefficient (ε) [1],fluorescence quantum yield (Φf) [1],λabs [1] [nm],λem [1] [nm],logD7.4 ([2]; octanol-PBS pH 7.4),labeling of mitochondria-localized HaloTag®-msGFP fusion [3],concentration at which ligand can be deployed for cellular labeling [3] [nM],logD7.4 ([2]; pH 7.4),cellular fluorescence intensity (JF ligand/msGFP ratio) [3]
"C[Si]1(C)C2=CC(=[N+]3CC(C(=O)NCCOCCOCCNC(=O)CCCC[C@@H]4SC[C@@H]5NC(=O)N[C@@H]54)C3)C=CC2=C(c2cc(C(=O)NCCOCCOCCCCCCCl)ccc2C(=O)[O-])c2ccc(N3CCC3)cc21 (stereo partly drawn) [compound 14, Biotin-JF646-HaloTag® ligand]","34,000 M^−1cm^−1",0.56,647,666,3.06,labeled the mitochondria in live cells,100,,
Biotin-JF549-HaloTag® ligand [compound 12],"92,000 M^−1cm^−1",0.90,552,575,,did not show appreciable cellular labeling,,0.07,poor labeling
"C[Si]1(C)c2cc(N3CC(F)C3)ccc2C2(OC(=O)c3ccc(C(=O)NCCOCCOCCCCCCCl)cc32)c2ccc(N3CC(F)C3)cc21 [5HTL, JF635-HaloTag® ligand, reference compound]",,,,,3.82,labeled the mitochondria in live cells,,,
"C[Si]1(C)C2=CC(=[N+]3CC(F)(C(=O)NCCOCCOCCNC(=O)CCCC[C@@H]4SC[C@@H]5NC(=O)N[C@@H]54)C3)C=CC2=C(c2cc(C(=O)NCCOCCOCCCCCCCl)ccc2C(=O)[O-])c2ccc(N3CC(F)C3)cc21 (stereo partly drawn) [compound 15, Biotin-JF635-HaloTag® ligand]","2,900 M^−1cm^−1",0.60,636,655,3.6,labeled the mitochondria in live cells,100,,lower fluorescence intensity than 5HTL
